# Assay results reported in ChEMBL document CHEMBL1124634, “Synthesis and antirhinovirus activity of 6-(dimethylamino)-2-(trifluoromethyl)-9-(substituted benzyl)-9H-purines” (J Med Chem, 1989).
# pIC50: −log10 of the molar value.
# Columns and labels:
# Human rhinovirus sp. [1] = experiment: Percent inhibitory activity at 8 uM against rhinoviral 13 serotype in a plaque inhibition assay using monolayers of M-HeLa cells; assay type: functional
# Human rhinovirus sp. [2] = experiment: Antiviral activity against rhinoviral 9 serotype in a plaque inhibition assay using monolayers of M-HeLa cells; assay type: functional, organism-based
# Human rhinovirus sp. [3] = experiment: Antiviral activity against rhinoviral 12 serotype in a plaque inhibition assay using monolayers of M-HeLa cells; assay type: functional, organism-based
# Human rhinovirus sp. [4] = experiment: Antiviral activity against rhinoviral 29 serotype in a plaque inhibition assay using monolayers of M-HeLa cells; assay type: functional, organism-based
# Human rhinovirus sp. [5] = experiment: Antiviral activity against rhinoviral-1A serotype in a plaque inhibition assay using monolayers of M-HeLa cells; assay type: functional, organism-based
# Human rhinovirus sp. [6] = experiment: Antiviral activity against rhinoviral-1B serotype in a plaque inhibition assay using monolayers of M-HeLa cells; assay type: functional, organism-based
# Human rhinovirus sp. [7] = experiment: Percent inhibitory activity at 8 uM against rhinoviral 31 serotype in a plaque inhibition assay using monolayers of M-HeLa cells; assay type: functional
# Human rhinovirus sp. [8] = experiment: Percent inhibitory activity at 8 uM against rhinoviral 30 serotype in a plaque inhibition assay using monolayers of M-HeLa cells; assay type: functional
# Human rhinovirus sp. [9] = experiment: Percent inhibitory activity at 8 uM against rhinoviral 19s erotype in a plaque inhibition assay using monolayers of M-HeLa cells; assay type: functional
# Human rhinovirus sp. [10] = experiment: Percent inhibitory activity at 8 uM against rhinoviral 21 serotype in a plaque inhibition assay using monolayers of M-HeLa cells; assay type: functional
# [11] = Percent inhibitory activity at 8 uM against rhinoviral 2 serotype in a plaque inhibition assay using monolayers of M-HeLa cells; assay type: functional, Homo sapiens
# Human rhinovirus sp. [12] = experiment: Antiviral activity against rhinoviral 8 serotype in a plaque inhibition assay using monolayers of M-HeLa cells; assay type: functional, organism-based
# Human rhinovirus sp. [13] = experiment: Percent inhibitory activity at 8 uM against rhinoviral 5 serotype in a plaque inhibition assay using monolayers of M-HeLa cells; assay type: functional
# [14] = Antiviral activity against rhinoviral 18 serotype in a plaque inhibition assay using monolayers of M-HeLa cells at 8 uM; assay type: functional, cell-based; settings: Homo sapiens
# Human rhinovirus sp. [15] = experiment: Antiviral activity against rhinoviral 15 serotype in a plaque inhibition assay using monolayers of M-HeLa cells; assay type: functional, organism-based
# Human rhinovirus sp. [16] = experiment: Antiviral activity against rhinoviral 14 serotype in a plaque inhibition assay using monolayers of M-HeLa cells; assay type: functional, organism-based
# Human rhinovirus sp. [17] = experiment: Antiviral activity against rhinoviral 4 serotype in a plaque inhibition assay using monolayers of M-HeLa cells; assay type: functional, organism-based
# Human rhinovirus sp. [18] = experiment: Antiviral activity against rhinoviral 16 serotype in a plaque inhibition assay using monolayers of M-HeLa cells; assay type: functional, organism-based
# Human rhinovirus sp. [19] = experiment: Percent inhibitory activity at 8 uM against rhinoviral 3 serotype in a plaque inhibition assay using monolayers of M-HeLa cells; assay type: functional
# Human rhinovirus sp. [20] = experiment: Percent inhibitory activity at 8 uM against rhinoviral 15 serotype in a plaque inhibition assay using monolayers of M-HeLa cells; assay type: functional
# Human rhinovirus sp. [21] = experiment: Antiviral activity against rhinoviral 31 serotype in a plaque inhibition assay using monolayers of M-HeLa cells; assay type: functional, organism-based
# [22] = Percent inhibitory activity at 8 uM against rhinoviral-19 serotype in a plaque inhibition assay using monolayers of M-HeLa cells; assay type: functional, Homo sapiens
# Human rhinovirus sp. [23] = experiment: Percent inhibitory activity at 8 uM against rhinoviral 4 serotype in a plaque inhibition assay using monolayers of M-HeLa cells; assay type: functional
# Human rhinovirus sp. [24] = experiment: Antiviral activity against rhinoviral-18 serotype in a plaque inhibition assay using monolayers of M-HeLa cells; assay type: functional, organism-based
# Human rhinovirus sp. [25] = experiment: Antiviral activity against rhinoviral 30 serotype in a plaque inhibition assay using monolayers of M-HeLa cells; assay type: functional, organism-based
pIC50 (Human rhinovirus sp. [2]),pIC50 (Human rhinovirus sp. [3]),pIC50 (Human rhinovirus sp. [4]),pIC50 (Human rhinovirus sp. [5]),pIC50 (Human rhinovirus sp. [6]),pIC50 (Human rhinovirus sp. [12]),pIC50 (Human rhinovirus sp. [16]),pIC50 (Human rhinovirus sp. [18]),SMILES,Inhibition (Human rhinovirus sp. [1]),Inhibition (Human rhinovirus sp. [10]),Inhibition [11],Inhibition (Human rhinovirus sp. [13]),Inhibition (Human rhinovirus sp. [19]),also measured
6.34,5.42,5.49,5.96,7.40,5.10,5.10,6.02,CN(C)c1nc(C(F)(F)F)nc2c1ncn2Cc1ccccc1,22%,28%,33%,33%,20%,Inhibition (Human rhinovirus sp. [7]): 37%; Inhibition (Human rhinovirus sp. [8]): 19%; Inhibition (Human rhinovirus sp. [9]): 32%; pIC50 [14]: 5.00; pIC50 (Human rhinovirus sp. [15]): 5.32; pIC50 (Human rhinovirus sp. [17]): 5.06
5.74,5.30,5.20,5.10,6.25,5.17,5.02,5.72,CN(C)c1nc(C(F)(F)F)nc2c1ncn2Cc1ccc(Cl)c(NC=O)c1,43%,20%,35%,36%,40%,Inhibition (Human rhinovirus sp. [20]): 29%; pIC50 (Human rhinovirus sp. [21]): 5.10; Inhibition [22]: 18%; Inhibition (Human rhinovirus sp. [23]): 34%; pIC50 (Human rhinovirus sp. [24]): 5.06; pIC50 (Human rhinovirus sp. [25]): 5.19
